Assay [1] has as its system colon cancer. The conditions noted are these: people who take aspirin for a long time; cited from earlier work.
The test system of assay [2] is rats with chronic atrophic gastritis. Briefly: Nuciferine treatment of rats with chronic atrophic gastritis with intestinal metaplasia induced by sodium deoxycholate and ammonia water. The class given is in vivo, SD rats. The conditions noted are these: for pathological state of chronic atrophic gastritis, HE-stained gastric tissue sections: 4 weeks after 8 weeks modeling, vs model group. An excerpt: An animal model of chronic atrophic gastritis induced by sodium deoxycholate and ammonia water was selected. After the model was successfully established, celecoxib and nuciferine were given by gavage.
The experiment: The experimental animals were from Beijing Weitong Lihua Laboratory Animal Technology Co., Ltd. Thirty SD rats with a specific pathogen free (SPF) grade of 200±20 g were selected, with half males and half males, and randomly divided into […]: normal control group, chronic atrophic gastritis (CAG) model group, the positive drug celecoxib intervention group and the nuciferine intervention group, with 6 rats in each group. The nuciferine was purchased from Chengdu Refines Biotechnology Co., Ltd., with a specification of 5 g and a purity of over 98%. Celecoxib was purchased from Beijing Bailingwei Technology Co., Ltd., with brand J&K, a specification of 1 g, and purity above 98%. Sodium deoxycholate was purchased from Amresco, USA, with a specification of 100 g. The rats in the model group, celecoxib intervention group and nuciferine intervention group were given sodium deoxycholate solution and ammonia to induce chronic atrophic gastritis. 20 mmol/L sodium deoxycholate was administered […] at a dose of 6 ml/kg, twice a week on an empty stomach, 0.1% ammonia water was drunk freely, and the model was continuously modeled for 8 weeks. […] After modeling, the celecoxib group and the nuciferine intervention group were given celecoxib 10 mg/kg, nuciferine 40 mg/kg, and 10 mg/kg by gavage administration, once a day. During the experiment, the rats' body weight and food intake were observed.
At the end of the dosing experiment, after the rats were sacrificed by dislocation, the stomach tissue was quickly taken out and prepared for pathological sectioning. The obtained gastric tissue was cut along the greater curvature of the stomach, washed with saline, blotted dry with filter paper, and fixed with formalin solution (10% formaldehyde solution). The sections were embedded, dehydrated by alcohol, and then made transparent with xylene. And then the sections were waxed and embed in paraffin. In the staining stage, the sections were soaked in xylene solution for 10 minutes each time for 3 times; then they were soaked in absolute ethanol and rinsed in tap water. Finally, the sections were stained with hematoxylin (to stain the nucleus) and eosin (to stain the cytoplasm), and the sections were mounted with neutral gum. Finally, the pathological changes of rat stomach tissue were observed under light microscope.

The subject of assay [3] is gastric mucosal injury model rats. Briefly: Protection against gastric mucosal damage induced by absolute ethanol in rats. The class given is in vivo, SD rats. To be noted: for congestion and bleeding of the gastric mucosa: then 1.0 mL absolute ethanol. The source says:
After continuous administration of […] and […] in rats, gastric mucosal damage was induced by absolute ethanol, and the gastric mucosal damage was observed under a microscope after dissection.
The experimental: The experimental animals were from Beijing Sibeifu Biotechnology Co., Ltd., and 30 SD rats of 200±20 g specific pathogen free (SPF) grade, male, were chosen and randomly divided into 5 groups: normal control group, the gastric mucosal injury model group, the nuciferine low-dose group, the nuciferine high-dose group and the lotus leaf extract group, as shown in Table 3. The low-dose nuciferine group, the high-dose nuciferine group and the lotus leaf extract group were administered intragastrically for 14 days, once a day. The nuciferine was purchased from Chengdu Refines Biotechnology Co., Ltd., with a specification of 5 g and a purity of over 98%. The lotus leaf extract was purchased from Hebei Chenguang Biotechnology Group Handan Co., Ltd., with a specification of 1 kg and a content of nuciferine of more than 0.4%. 1 hour after the rats in the low-dose nuciferine group, the high-dose nuciferine group and the lotus leaf extract group were given continuous administration, the rats in the control group and the model group were strictly fasted for 24 hours (with water available), and medicine was also prohibited during this period. Rats in the model group, the low-dose nuciferine group, the high-dose nuciferine group, and the lotus leaf extract group were given 1.0 mL of absolute ethanol per rat by intragastric administration; 1 hour after the completion of the modeling, the rats were sacrificed by blood sampling from the abdominal aorta, and the stomach was taken by cutting the abdomen, was injected with 10% formaldehyde solution, and fixed for 20 minutes, then the stomach was cut along the greater curvature of the same and was washed to remove the stomach contents, and a general observation under a dissecting microscope was conducted and the length of injury (mm) was measured.

Assay [4] relates to Drosophila gastrointestinal stem cells. Briefly: DSS-induced abnormal proliferation of Drosophila gastrointestinal stem cells (esg-GFP). In kind it is in vivo. The source says: The gastrointestinal tumorigenesis model reported in the publication “Cell Stem Cell” of “Cell” Press was select. Dextran sulfate sodium (DSS) was used to induce abnormal proliferation of Drosophila gastrointestinal stem cells to simulate the process of tumorigenesis. During the modeling period, nuciferine and lotus leaf extract were given.
The experimental: Dextran sulfate sodium (DSS) was used to induce abnormal proliferation of drosophila gastrointestinal stem cells to simulate the process of tumorigenesis. The experimental drosophila were esg-GFP purchased from Tsinghua Drosophila Center. GFP (green fluorescent protein driven by esg-Ga14) can specifically label intestinal stem cells and enteroblasts. A solution containing 20% sucrose, 3% DSS (average molecular weight 40 kDa) and 0.5% dimethyl sulfoxide (DMSO) was prepared, and the solution was mixed with the drosophila food, and the mixture was placed half-dry and was then used to feed the drosophila to perform modeling. During the modeling period, different groups were given nuciferine and lotus leaf extract. The nuciferine was purchased from Chengdu Refines Biotechnology Co., Ltd., with a specification of 5 g and a purity of over 98%. The lotus leaf extract was purchased from Hebei Chenguang Biotechnology Group Handan Co., Ltd., with a specification of 100 g and a nuciferine content of more than 0.4%. Sodium dextran sulfate was purchased from Beijing Zhongkekeao Biotechnology Co., Ltd. with a brand of mp and a specification of 50 g. The dimethyl sulfoxide was purchased from Amresco, USA, with a specification of 500 ml.
1) The Nuciferine Experiment Groups
Model control group: medium+0.5% DMSO+3% DSS
Low-dose nuciferine group: medium+0.5% DMSO+3% DSS+nuciferine 100 μM
High-dose nuciferine group: medium+0.5% DMSO+3% DSS+nuciferine 200 μM
2) The Lotus Leaf Extract Experiment Groups
Lotus leaf extract low-dose group: medium+0.5% DMSO+3% DSS+lotus leaf extract (containing 100 μM […])
Lotus leaf extract medium-dose group: medium+0.5% DMSO+3% DSS+lotus leaf extract (containing 200 μM […]) […]

Assay [5] has as its system MNNG-GES-1 cells. Briefly: MTT assay on MNNG-stimulated GES-1 cell model of transformation of gastritis to gastric cancer. The class given is cell-based, human. The conditions noted are these: nuciferine 48 h. The source says: The gastritis cancer transformation model used in this example formed by human gastric epithelial cells (GES-1) induced by chemical mutagens N-methyl N-nitronitrosoguanidine (MNNG) was as reported in the literature. The nuciferine was purchased from Chengdu Refines Biotechnology Co., Ltd., with a specification of 1 g and a purity of over 98%. The MNNG was purchased from Beijing Baiyiyi Chuang Biotechnology Co., Ltd., with a brand Tixiai and a specification of 5 g. The GES-1 cells were purchased from Shanghai Xuran Biotechnology Co., Ltd. The phosphate buffered saline (PBS) was purchased from Amresco, USA, with a specification of 10 L. The dimethyl sulfoxide (DMSO) was purchased from Amresco, USA, with a specification of 500 ml. The fetal bovine serum (FBS) was purchased from Amresco, USA, with a specification of 100 ml. The 3-(4,5-Dimethylthiazole-2)-2,5-diphenyltetrazolium bromide (MTT) was purchased from Shanghai Biyuntian Biotechnology Co., Ltd., with a specification of 500 mg.
GES-1 cells was planted in a 96-well plate (8000 cells/well, leave a row of blank holes, discard the edge holes and add an equal volume of PBS to reduce evaporation), the old solution was aspirated the next day, and 10% FBS containing no double antibody medium was added, […] MNNG was added to induce stimulation, culturing for 24 h in the dark, and discarding the culture medium containing MNNG. […]

Molecules are shown by their SMILES. Entries after “also recorded” stand apart in the source; their conditions may differ.

On to `CC(=O)Oc1ccccc1C(=O)O` [aspirin], for which the “reduction of incidence of colon cancer” value in assay [1] is 24%.
On to `COc1cc2c3c(c1OC)-c1ccccc1C[C@H]3N(C)CC2` [nuciferine], for which the entries for the “pathological state of chronic atrophic gastritis, HE-stained gastric tissue sections” value in assay [2] (10 mg/kg (celecoxib group; low-dose nuciferine group) by gavage once a day) and in assay [2] (40 mg/kg (high-dose nuciferine group) by gavage once a day) were “reduced to the state of chronic non-atrophic gastritis” and “best effect; also recorded: significantly reduced”, respectively. The weight of rats entry in assay [2] (CAG model rats, therapeutic administration, dose groups not distinguished) is on record as “increased the weight of rats”. In addition, the “treatment of chronic atrophic gastritis and intestinal metaplasia of rats (pathological slices)” value in assay [2] (intervention groups, doses not distinguished) was “effectively treated”. Besides, the “gastric mucosal injury of rats compared with the model group” value in assay [3] (doses not distinguished) is reported as “significantly improved; also recorded: improved compared with the model group”. The “congestion and bleeding of the gastric mucosa” value is “no congestion and bleeding” in assay [3] (nuciferine high-dose 40 mg/kg intragastric once a day 14 days); “reduced” in assay [3] (nuciferine low-dose 20 mg/kg intragastric once a day 14 days). For the same compound, the “abnormal proliferation of Drosophila gastrointestinal stem cells and mucosal ulceration” value in assay [4] (doses not distinguished) was “effectively inhibited”. The “proliferation of drosophila gastrointestinal stem cells” value in assay [4] (high-dose nuciferine 200 μM in medium + 0.5% DMSO + 3% DSS, 3-5 days at 25° C.) was “returned to normal”. Further, the “abnormal proliferation of drosophila gastrointestinal stem cells” value in assay [4] (low-dose nuciferine 100 μM in medium + 0.5% DMSO + 3% DSS, 3-5 days at 25° C.) is on record as “reduced”. In assay [5] (Homo sapiens, GES1, GES-1 cells stimulated with MNNG 24 h, read-out: half inhibitory concentration (IC50) on cells transformed from gastritis to gastric cancer), the IC50 was 92.7 µM. The “viability of MNNG-GES-1 cells” value in assay [5] (P<0.05) is “significantly inhibiting”.

The values above are taken from US20220008406A1, “USE OF NUCIFERIN AND LOTUS LEAF EXTRACT IN THE PREPARATION OF A MEDICAMENT FOR TREATING ATROPHIC GASTRITIS AND/OR BLOCKING TRANSFORMATION OF GASTRITIS INTO CANCER” (priority 2018, published 2022).
